# Data taken from ChEMBL document CHEMBL4334442, “Effects of Acetylshikonin on the Infection and Replication of Coxsackievirus A16 in Vitro and in Vivo” (J Nat Prod, 2019).
# Calls of active or inactive are those of the source. The calls are words filed in the database; no cut-off is given here.
# Experiments:
# Mus musculus = assay: Effect on IL-6 level in ICR mouse at 2 mg/kg, administered intramuscularly by ELISA; format: functional, organism-based
# Coxsackievirus A16 [1] = assay: Antiviral activity against Coxsackievirus A16 TA271 infected in RD cells at release stage assessed as cell fragmentation at 0.08 uM/L preincubated with cells for 1 hr followed by replacement of fresh medium containing compounds after 5 hrs post infection and further incubated for 16 hrs post infection by inverted microscopic analysis; format: functional, cell-based
# Coxsackievirus A16 [2] = assay: Antiviral activity against Coxsackievirus A16 TA271 infected in ICR mouse assessed as reduction in virus-induced IFN-gamma level at 2 mg/kg, im after 3 days post infection by ELISA; format: functional, organism-based
# Coxsackievirus A16 [3] = assay: Antiviral activity against Coxsackievirus A16 TA271 infected in ICR mouse assessed as reduction in lesions in hind limb muscle at 2 mg/kg, im after 5 days post infection by H and E staining based histopathological analysis; format: functional, organism-based
# Coxsackievirus A16 [4] = assay: Antiviral activity against Coxsackievirus A16 TA271 infected in RD cells assessed as effect on viral load at preinfection stage at 0.08 uM/L preincubated with cells for 3 hrs followed by viral infection for 1 hr and measured after 48 hrs post infection in fresh medium by RT-PCR analysis; format: functional, cell-based
# Coxsackievirus A16 [5] = assay: Antiviral activity against Coxsackievirus A16 TA271 infected in RD cells at release stage assessed as cell detachment at 0.08 uM/L preincubated with cells for 1 hr followed by replacement of fresh medium containing compounds after 5 hrs post infection and further incubated for 16 hrs post infection by inverted microscopic analysis; format: functional, cell-based
# [6] = Cytotoxicity against human RD cells assessed as cell survival at <5 uM after 24 hrs by CCK8 assay relative to control; format: cell-based; details: read-out: Activity
# Coxsackievirus A16 [7] = assay: Antiviral activity against Coxsackievirus A16 TA271 infected in ICR mouse assessed as reduction in inflammatory cell infiltration in heart at 2 mg/kg, im after 5 days post infection by H and E staining based histopathological analysis; format: functional, organism-based
# Coxsackievirus A16 [8] = assay: Antiviral activity against Coxsackievirus A16 TA271 infected in RD cells at release stage assessed as appearance of rounded cells at 0.08 uM/L preincubated with cells for 1 hr followed by replacement of fresh medium containing compounds after 5 hrs post infection and further incubated for 16 hrs post infection by inverted microscopic analysis; format: functional, cell-based
# Coxsackievirus A16 [9] = assay: Antiviral activity against Coxsackievirus A16 TA271 infected in ICR mouse assessed as reduction in viral load in heart at 0.08 uM/L preincubated with viral suspension for 2 hrs followed by intramuscular administration after 3 to 5 days post infection by RT-PCR analysis; format: functional
# Coxsackievirus A16 [10] = assay: Antiviral activity against Coxsackievirus A16 TA271 infected in ICR mouse assessed as reduction in inflammatory cell infiltration in hind limb muscle at 2 mg/kg, im after 5 days post infection by H and E staining based histopathological analysis; format: functional, organism-based
# Coxsackievirus A16 [11] = assay: Antiviral activity against Coxsackievirus A16 TA271 infected in ICR mouse assessed as effect on virus-induced IL-6 level at 2 mg/kg, im after 3 days post infection by ELISA; format: functional, organism-based
# Coxsackievirus A16 [12] = assay: Antiviral activity against Coxsackievirus A16 TA271 infected in RD cells at preinfection stage assessed as appearance of rounded cells at 0.08 uM/L preincubated with cells for 3 hrs followed by viral infection and measured after 1 hr by inverted microscopic analysis; format: functional, cell-based
# Coxsackievirus A16 [13] = assay: Antiviral activity against Coxsackievirus A16 TA271 infected in ICR mouse assessed as reduction in virus-induced IFN-gamma level at 0.08 uM/L preincubated with viral suspension for 2 hrs followed by intramuscular administration after 3 days post infection by ELISA; format: functional
# Coxsackievirus A16 [14] = assay: Antiviral activity against Coxsackievirus A16 TA271 infected in ICR mouse assessed as reduction in viral load in lung at 0.08 uM/L preincubated with viral suspension for 2 hrs followed by intramuscular administration after 3 to 5 days post infection by RT-PCR analysis; format: functional
# Coxsackievirus A16 [15] = assay: Antiviral activity against Coxsackievirus A16 TA271 infected in ICR mouse assessed as reduction in muscle fiber breakage in lung at 2 mg/kg, im after 5 days post infection by H and E staining based histopathological analysis; format: functional, organism-based
# Coxsackievirus A16 [16] = assay: Antiviral activity against Coxsackievirus A16 TA271 infected in ICR mouse assessed as mild alveolar fibrosis in spinal muscle at 2 mg/kg, im after 5 days post infection by H and E staining based histopathological analysis; format: functional, organism-based
# Coxsackievirus A16 [17] = assay: Antiviral activity against Coxsackievirus A16 TA271 infected in ICR mouse assessed as reduction in lesions in heart at 2 mg/kg, im after 5 days post infection by H and E staining based histopathological analysis; format: functional, organism-based
# Coxsackievirus A16 [18] = assay: Antiviral activity against Coxsackievirus A16 TA271 infected in RD cells assessed as inhibition of viral adsorption/viral entry by measuring increase in cell viability at 0.08 uM/L after 1 hr by inverted microscopic analysis; format: functional, cell-based
# Coxsackievirus A16 [19] = assay: Antiviral activity against Coxsackievirus A16 TA271 infected in RD cells at replication stage assessed as appearance of cell shrinkage at 0.08 uM/L 1 hr post-infection viral inoculum was removed and cells incubated with medium containing compound and measured after 5 hrs by inverted microscopic analysis; format: functional, cell-based
# Coxsackievirus A16 [20] = assay: Antiviral activity against Coxsackievirus A16 TA271 infected in ICR mouse assessed as reduction in muscle fiber breakage in spinal muscle at 2 mg/kg, im after 5 days post infection by H and E staining based histopathological analysis; format: functional, organism-based
# Coxsackievirus A16 [21] = assay: Antiviral activity against Coxsackievirus A16 TA271 infected in ICR mouse assessed as mild alveolar wall thickening in heart at 2 mg/kg, im after 5 days post infection by H and E staining based histopathological analysis; format: functional, organism-based
# [22] = Toxicity in ICR mouse infected with Coxsackievirus A16 TA271 assessed as increase in body weight at 2 mg/kg, im and measured every day; format: organism-based; details: in vivo
# Coxsackievirus A16 [23] = assay: Antiviral activity against Coxsackievirus A16 TA271 infected in ICR mouse assessed as reduction in muscle fiber breakage in hind limb muscle at 2 mg/kg, im after 5 days post infection by H and E staining based histopathological analysis; format: functional, organism-based
# Coxsackievirus A16 [24] = assay: Antiviral activity against Coxsackievirus A16 TA271 infected in human RD cells assessed as inhibition of virus-induced cytopathic effect at 0.08 uM/L preincubated with viral suspension for 2 hrs followed by cell addition and measured after 24 hrs by CCK-8 assay relative to control; format: functional; details: Enterovirus A
# [25] = Cytotoxicity against human RD cells assessed as reduction in cell viability after 12 hrs by CCK8 assay; format: cell-based
# Coxsackievirus A16 [26] = assay: Antiviral activity against Coxsackievirus A16 TA271 infected in human RD cells assessed as inhibition of virus-induced cytopathic effect preincubated with viral suspension for 2 hrs followed by cell addition and measured after 24 hrs by CCK-8 assay; format: functional, cell-based
# Coxsackievirus A16 [27] = assay: Antiviral activity against Coxsackievirus A16 TA271 infected in ICR mouse assessed as mild alveolar wall thickening in lung at 2 mg/kg, im after 5 days post infection by H and E staining based histopathological analysis; format: functional, organism-based
# Coxsackievirus A16 [28] = assay: Antiviral activity against Coxsackievirus A16 TA271 infected in ICR mouse assessed as reduction in inflammatory cell infiltration in lung at 2 mg/kg, im after 5 days post infection by H and E staining based histopathological analysis; format: functional, organism-based
compound,measurement,setting,value
CC(=O)OC(CC=C(C)C)C1=CC(=O)c2c(O)ccc(O)c2C1=O (stereo not given),Activity,Mus musculus,inactive
same,Activity,Coxsackievirus A16 [1],inactive
same,Activity,Coxsackievirus A16 [2],Active
same,Activity,Coxsackievirus A16 [3],Active
same,Activity,Coxsackievirus A16 [4],inactive
same,Activity,Coxsackievirus A16 [5],inactive
same,viability at 24 h,[6],> 90%
same,Activity,Coxsackievirus A16 [7],Active
same,Activity,Coxsackievirus A16 [8],inactive
same,Activity,Coxsackievirus A16 [9],Active
same,Activity,Coxsackievirus A16 [10],Active
same,Activity,Coxsackievirus A16 [11],inactive
same,Activity,Coxsackievirus A16 [12],inactive
same,Activity,Coxsackievirus A16 [13],Active
same,Activity,Coxsackievirus A16 [14],Active
same,Activity,Coxsackievirus A16 [15],Active
same,Activity,Coxsackievirus A16 [16],Active
same,Activity,Coxsackievirus A16 [17],Active
same,inhibition,Coxsackievirus A16 [18],Active
same,Activity,Coxsackievirus A16 [19],inactive
same,Activity,Coxsackievirus A16 [20],Active
same,Activity,Coxsackievirus A16 [21],Active
same,Activity,[22],Non-Toxic
same,Activity,Coxsackievirus A16 [23],Active
same,inhibition at 0.08 µM,Coxsackievirus A16 [24],80%
same,CC50 at 12 h,[25],9.4 µM
same,Activity,Coxsackievirus A16 [26],Dose-dependent effect
same,EC50,Coxsackievirus A16 [26]; Enterovirus A,0.04 µM
same,Activity,Coxsackievirus A16 [27],Active
same,Activity,Coxsackievirus A16 [28],Active
